# Reference: PMC4735795, “Deciphering the Receptor Repertoire Encoding Specific Odorants by Time-Lapse Single-Cell Array Cytometry” (Scientific Reports, 2016)
# Tests used:
# Test in all cases: GloSensor cAMP luminescence in HEK293T
# Format in all cases: cell-based
# Conditions in all cases: agonist; co-expressed Golf alpha and RTP1S; N = 12
# Olfr1258 (mOR232-3) = target: T1, Olfr1258 (mOR232-3) (Mus musculus, UniProt Q8VGN6)
# T1 construct: gene Or4c10; full-length from mouse genomic DNA in pCI-neo; N-terminal rhodopsin and myc tags; HEK293T with co-transfected Golf alpha, RTP1S and GloSensor-22F
# T1 sequence (Q8VGN6 1-311): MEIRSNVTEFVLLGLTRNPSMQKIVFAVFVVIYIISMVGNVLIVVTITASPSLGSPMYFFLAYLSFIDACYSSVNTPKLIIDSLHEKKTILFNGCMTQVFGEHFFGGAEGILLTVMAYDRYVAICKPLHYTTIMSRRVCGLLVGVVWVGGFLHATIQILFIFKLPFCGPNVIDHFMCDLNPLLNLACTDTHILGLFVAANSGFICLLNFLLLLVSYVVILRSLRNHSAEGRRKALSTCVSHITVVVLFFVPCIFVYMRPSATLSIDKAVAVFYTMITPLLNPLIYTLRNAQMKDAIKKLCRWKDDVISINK
# Olfr168 (mOR271-1) = target: T2, Olfr168 (mOR271-1) (Mus musculus, UniProt A0PK36)
# T2 construct: full-length from mouse genomic DNA in pCI-neo; N-terminal rhodopsin and myc tags; HEK293T with co-transfected Golf alpha, RTP1S and GloSensor-22F
# T2 sequence (A0PK36 1-312): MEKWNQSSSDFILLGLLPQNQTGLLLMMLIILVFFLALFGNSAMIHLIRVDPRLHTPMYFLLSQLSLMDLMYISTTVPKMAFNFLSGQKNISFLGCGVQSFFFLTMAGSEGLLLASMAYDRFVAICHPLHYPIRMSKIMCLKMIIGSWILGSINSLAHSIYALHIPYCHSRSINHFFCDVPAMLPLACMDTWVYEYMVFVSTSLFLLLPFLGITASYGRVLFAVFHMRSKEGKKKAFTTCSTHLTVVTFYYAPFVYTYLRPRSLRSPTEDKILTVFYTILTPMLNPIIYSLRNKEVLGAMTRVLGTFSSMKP
# Olfr166 (mOR270-1) = target: T3, Olfr166 (mOR270-1) (Mus musculus, UniProt Q0VEL6)
# T3 construct: full-length from mouse genomic DNA in pCI-neo; N-terminal rhodopsin and myc tags; HEK293T with co-transfected Golf alpha, RTP1S and GloSensor-22F
# T3 sequence (Q0VEL6 1-312): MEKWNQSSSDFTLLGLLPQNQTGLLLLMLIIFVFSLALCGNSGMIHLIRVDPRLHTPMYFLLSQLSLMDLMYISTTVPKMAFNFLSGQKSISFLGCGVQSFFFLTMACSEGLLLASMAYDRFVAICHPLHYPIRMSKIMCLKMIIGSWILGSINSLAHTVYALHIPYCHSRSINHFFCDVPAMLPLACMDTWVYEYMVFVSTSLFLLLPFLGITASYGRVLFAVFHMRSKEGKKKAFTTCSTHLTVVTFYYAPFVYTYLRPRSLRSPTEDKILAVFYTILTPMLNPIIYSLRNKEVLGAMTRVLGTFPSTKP
# Olfr45 (mOR253-2) = target: T4, Olfr45 (mOR253-2) (Mus musculus, UniProt A0JLW4)
# T4 construct: full-length from mouse genomic DNA in pCI-neo; N-terminal rhodopsin and myc tags; HEK293T with co-transfected Golf alpha, RTP1S and GloSensor-22F
# T4 sequence (A0JLW4 1-311): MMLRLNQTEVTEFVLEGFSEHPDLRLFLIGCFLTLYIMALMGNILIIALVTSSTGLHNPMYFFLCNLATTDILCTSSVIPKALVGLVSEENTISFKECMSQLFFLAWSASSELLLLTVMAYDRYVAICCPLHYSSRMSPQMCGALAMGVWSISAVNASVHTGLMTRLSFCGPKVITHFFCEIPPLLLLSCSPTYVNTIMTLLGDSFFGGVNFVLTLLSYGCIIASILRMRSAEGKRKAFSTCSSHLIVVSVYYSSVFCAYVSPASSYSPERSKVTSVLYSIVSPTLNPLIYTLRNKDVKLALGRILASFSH
compound,measurement,setting,value
CCC(C)=O [2-butanone],GloSensor cAMP luminescence in HEK293T,Olfr1258 (mOR232-3),Olfr1258 was activated by 2-butanone
CCCC(C)=O [2-pentanone],EC50,Olfr168 (mOR271-1),2100 ± 600 µM
c1ccncc1 [pyridine],GloSensor cAMP luminescence in HEK293T,Olfr166 (mOR270-1),both Olfr45 and Olfr166 were activated by pyridine
same,GloSensor cAMP luminescence in HEK293T,Olfr45 (mOR253-2),both Olfr45 and Olfr166 were activated by pyridine
